Where two headings read alike, the source gives them in different places.
What was measured:
A549 cells = assay: Cell growth inhibition, lysed cell LDH assay, lung cancer cell line; type: cell-based
Experimental: To determine whether Risperidone alone, or in combination with CLA could inhibit cell growth of cells taken from a lung cancer cell line overexpressing HSD10, A549 cells were seeded at a density of 2,000 cells per well in a 96 well plate, and incubated at 37° C., 5% CO2 for 48 hours in standard growth media (DMEM nutrient media, 10% Fetal Calf Serum, 2 mM L-Glutamine). The media was then removed by pipette and replaced with the appropriate drug treatment as follows: 50 μM Risperidone in A459 treatment media (DMEM nutrient media, 125 uM fatty acid free BSA, 2 mM L-Glutamine); 50 μM CLA in A459 treatment media; 50 μM Risperidone and 50 μM CLA in A459 treatment media; 50 μM Risperidone and 1 μM Testosterone in A459 treatment media; 50 μM Risperidone, 50 μM CLA, and 1 μM Testosterone in A459 treatment media. After incubation in the drug treatment for 96 hours at 37° C., 5% CO2, the supernatant was removed from all wells of cells, and cells washed with 200 μL PBS.
After removal of the PBS from the cell cultures described above, cell number was determined using a lysed cell LDH assay. Cells were lysed with 0.9% Triton-X in PBS for 2 hours at 37° C., 5% CO2 and 50 μL of this cell lysate was transferred to a fresh 96 well plate. About 50 μL of CytoTox 96 assay reagent was added to the transferred cell lysate and this mixture was incubated at room temperature in the dark for 20 minutes. After the addition of 50 μL stop reagent, the optical absorbance was determined for each incubated mixture at 492 nm. The percentage cell number was calculated by normalizing the experimental counts, where 100% is set to cells receiving no drug treatment, and 0% is set to readings from wells containing no cells. The mean and standard error was calculated from at least 3 wells.

OVCAR-3 cells = assay: Cell growth inhibition, lysed cell LDH assay, ovarian cancer cell line; type: cell-based
Experimental: (§1) To determine whether Risperidone could be effective in inhibiting growth of cancer cells overexpressing HSD10, a lysed cell LDH assay was conducted using cells taken from a prostate cancer cell line, a lung cancer cell line, a breast cancer cell line, an ovarian cancer cell line, each of which was known to overexpress HSD10, and a non-cancerous cell line.
(§2) After incubation in the drug treatment for 96 hours at 37° C., 5% CO2, the supernatant was removed from all wells of cells, and cells washed with 200 μL PBS.
(§3) After removal of the PBS from the cell cultures described above, cell number was determined using a lysed cell LDH assay. Cells were lysed with 0.9% Triton-X in PBS for 2 hours at 37° C., 5% CO2 and 50 μL of this cell lysate was transferred to a fresh 96 well plate. About 50 μL of CytoTox 96 assay reagent was added to the transferred cell lysate and this mixture was incubated at room temperature in the dark for 20 minutes. After the addition of 50 μL stop reagent, the optical absorbance was determined for each incubated mixture at 492 nm. […] The mean and standard error was calculated from at least 3 wells.

MCF7 cells = assay: Cell growth inhibition, lysed cell LDH assay, breast cancer cell line; type: cell-based
Experimental: as §1, §2, §3

VERO cells = assay: Cell growth inhibition, lysed cell LDH assay, non-cancerous cell line; type: cell-based
Experimental: as §1, §2, §3

HSD10 = target: T1, HSD10 (Homo sapiens, UniProt Q99714); assay: HSD10 Enzyme Inhibition Assay; type: biochemical; conditions: 50 μM drug
T1 construct: endogenous in cells; host or cells: PC3 cells
T1 sequence (Q99714 1-261): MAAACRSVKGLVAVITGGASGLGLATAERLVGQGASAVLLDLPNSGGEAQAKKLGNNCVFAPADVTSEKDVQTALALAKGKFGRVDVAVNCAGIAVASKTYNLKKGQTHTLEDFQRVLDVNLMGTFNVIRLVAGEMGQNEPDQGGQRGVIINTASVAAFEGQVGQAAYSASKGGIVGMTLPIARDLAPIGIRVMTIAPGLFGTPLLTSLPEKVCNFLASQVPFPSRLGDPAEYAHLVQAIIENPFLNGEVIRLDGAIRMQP
Experimental: An HSD10 inhibition assay was performed to determine the effect of several anti-psychotics on enzyme activity.
(§4) PC3 cells are from a cell line derived from a hormone refractory prostate cancer and are known to overexpress HSD10. […] Cells line tests were carried out in presence and absence of testosterone for comparison. After incubation in the drug treatment for 96 hours at 37° C., 5% CO2, the supernatant was removed from all wells of cells, and cells washed with 200 μL PBS.
as §3, with “PBS,” for “PBS from the cell cultures described above,”, “assay (CytoTox 96 Non-radioactive cytotoxicity assay (LDH Assay); Promega, Co., Madison Wis.).” for “assay.”

PC3 cells = assay: Cell growth inhibition, lysed cell LDH assay, prostate cancer cell line; type: cell-based
Experimental: To determine whether Risperidone could be effective in inhibiting growth of cancer cells overexpressing HSD10, a lysed cell LDH assay was conducted using cells from a PC3 cell line.
as §4
as §3, with “PBS,” for “PBS from the cell cultures described above,”, “assay (CytoTox 96 Non-radioactive cytotoxicity assay (LDH Assay); Promega, Co., Madison Wis.).” for “assay.”
To determine the optimal concentration of Risperidone and CLA necessary to inhibit cell growth, a lysed cell LDH assay was conducted using various concentration of Risperidone and CLA. PC3 cells were cultured and a lysed cell LDH assay was conducted as described above, except that the various drug treatments evaluated contained either 0 μM, 12.5 μM, 25 μM, or 50 μM Risperidone in combination with 0 μM, 6.25 μM, 12.5 μM, 25 μM, 50 μM, or 100 μM CLA (see Table 3).
as §3

BxPC-3 cells = assay: Resazurin-based cell viability assay, pancreatic cancer cell line; conditions: Homo sapiens, BXPC-3, read-out: growth inhibition of Bx-PC3 cells
Experimental: To determine whether Risperidone alone, or in combination with CLA could inhibit cell growth of cells taken from a pancreatic cancer cell line overexpressing HSD10, a resazurin-based cell viability assay was conducted on Bx-PC3 cells.
BxPC-3 cells are from a cell line derived from a human pancreatic adenocarcinoma and are known to overexpress HSD10. BxPC-3 cells were seeded at a density of 4,000 cells per well in a 384 well plate, and incubated at 37° C., 5% CO2 for 24 hours in standard growth media (RPMI nutrient media, 5% heat-inactivated Fetal Calf Serum, 2 mM L-Glutamine). The media was then removed by pipette and replaced with 50 μL BxPC-3 treatment media comprising 125 μM fatty acid-free BSA, 2 mM L-Glutamine and one of the following drug treatments: 0.1 μM, 2 μM, or 50 μM Risperidone; 0.1 μM, 2 μM, or 50 μM CLA; or 0.1 μM, 2 μM, or 50 μM of Risperidone and CLA (in equimolar amounts). After incubation in the drug treatment for 72 hours at 37° C., 5% CO2, viable cell number was determined using a resazurin-based cell viability assay (PRESTOBLUE®; Invitrogen, Carlsbad, Calif.). To each well, 7 μL of PRESTOBLUE® reagent was added and the plates incubated for 60 minutes at 37° C., 5% CO2. After incubation, the fluorescence intensity of each well was determined using a microplate reader by excitation and 570 nm and recording emission at 600 nm. The percentage of viable cell number was calculated by normalizing the experimental fluorescence intensity, where 100% is set to cells receiving no drug treatment (cells metabolizing at optimal rate), and 0% is set to readings from cells treated with Paclitaxel (cells not metabolizing at all due to their destruction by anti-cancer drug). A value under 50% could be considered a useful indication of potential efficacy.

PC-3M-luc cells = assay: Orthotopic prostate tumor mouse xenograft model; conditions: single drug
Experimental: Immunodeficeint male mice (athymic nude mice) were acclimated to the laboratory for at least one week prior to implantation of tumor. PC-3M-luc cells obtained directly from in vitro culture were then injected into the prostate on Day 0. Animals were divided into six groups of 12 mice each. Primary tumor size and metastases were assessed by bioluminescence measurements on day 6, 13, 20, 27, 34, and 40. On day 7 a five week treatment regime was initiated. Both individual drug and high and low dose combination were examined by administering the drugs twice daily on an individual body weight basis using a dose escalation protocol (Table 7). If tumors grew above a pre-determined level, or mice lost more than 10% of bodyweight, they were culled. The primary tumor was excised, weighed and measured. Individual organs were imaged to assess metastatic burden.

[1] = 50 μM Risperidone and/or 50 μM CLA, 1 μM Testosterone (T) where added, 96 hours

Cc1nc2n(c(=O)c1CCN1CCC(c3noc4cc(F)ccc34)CC1)CCCC2 [Risperidone, 3-[2-[4-(6-fluoro-1,2-benzoxazol-3-yl)piperidin-1-yl]ethyl]-2-methyl-6,7,8,9-tetrahydropyrido[1,2-a]pyrimidin-4-one]
Percentage of Lysed Cells (A549 cells; A549, 50 μM Risperidone and/or 50 μM CLA, 1 μM Testosterone (T) where added, 96 hours): 38 ± 1.9%
inhibition at 50 µM (A549 cells; Homo sapiens, A549, read-out: growth inhibition of A549 cells): > 60%
Percentage of Lysed Cells (OVCAR-3 cells; [1]): 64 ± 0.4%
inhibition at 50 µM (OVCAR-3 cells; Homo sapiens, 50 μM): ~35%
Percentage of Lysed Cells (MCF7 cells; [1]): 35 ± 2.4%
inhibition at 50 µM (MCF7 cells; Homo sapiens, 50 μM): ~65%
effect on growth of cells from the non-cancerous cell line VERO (VERO cells; 50 μM): neither Risperidone nor CLA had any measurable effect
Percentage of Lysed Cells (VERO cells; VERO, 50 μM Risperidone and/or 50 μM CLA, 1 μM Testosterone (T) where added, 96 hours): 94 ± 1.7%
Oxidative Activity Rate (HSD10): 1.0 µM/min
Reductive Activity Rate (HSD10): 3.3 µM/min
inhibition at 50 µM (HSD10; read-out: Oxidative Activity Drug Inhibition): 88%
inhibition at 50 µM (HSD10; read-out: Reductive Activity Drug Inhibition): 63%
Percentage of Lysed Cells (PC3 cells; 12.5 μM Risperidone, 0 μM CLA (Table 4)): 81 ± 3.6%
Percentage of Lysed Cells (PC3 cells; 12.5 μM of each drug, 96 hours, 100% = no drug treatment (Table 3)): 102 ± 5.4%
Percentage of Lysed Cells (PC3 cells; 25 μM Risperidone, 0 μM CLA (Table 4)): 73 ± 2.2%
Percentage of Lysed Cells (PC3 cells; 25 μM of each drug, 96 hours, 100% = no drug treatment (Table 3)): 93 ± 0.51%
Percentage of Lysed Cells (PC3 cells; 50 μM Risperidone, 0 μM CLA (Table 4)): 79 ± 0.7%
Percentage of Lysed Cells (PC3 cells; 50 μM of each drug, 96 hours, 100% = no drug treatment (Table 3)): 52 ± 0.22%
inhibition at 50 µM (PC3 cells; Homo sapiens, PC-3, 50 μM): ~50%
Percentage of Lysed Cells (PC3 cells; PC3, 50 μM Risperidone and/or 50 μM CLA, 1 μM Testosterone (T) where added, 96 hours (Table 5)): 52 ± 1.7%
growth inhibition of PC3 cells (PC3 cells; either 25 μM or 50 μM Risperidone alone (Table 4 experiment)): 20-30%
inhibition at 50 µM (BxPC-3 cells): ~60%
body weight throughout the study (PC-3M-luc cells; by Day 40): maintained a constant weight
animal loss (PC-3M-luc cells; by day 34): about 10%
Tumor Growth Inhibition (PC-3M-luc cells; calculated on Day 34, dosing per Table 7): 16%
Animal Survival (overall survivorship) (PC-3M-luc cells; day 40, dosing per Table 7): 33%

— patent US10111877B2, “Modulators of androgen synthesis” (Tangent Reprofiling Limited, priority 2012, dated 2018)
